From patent publication US10774084B2, “Adenine derivatives and their use as UV-photoprotective agents” (UNIVERZITA PALACKEHO V OLOMOUCI, priority 2015, dated 2020)

Legend:
Format in all cases: cell-based
HaCaT = experiment: Calcein AM cytotoxicity assay; details: Homo sapiens, 72 hrs
Excerpt: (§1) One of the parameters used as the base for cytotoxic analysis is metabolic activity of viable cells. Microtiter assay, which uses the Calcein AM, is now widely used to quantify cell proliferation and cytotoxicity. The quantity of […] Calcein AM corresponds to the number of viable cells in culture. The cell lines of breast cancer (MCF-7), human erythromleukemia (K562), BJ human fibroblast cells (BJ) and human keratinocyte cell line (HaCaT) were used for routine screening of cytotoxicity of the compounds. The cells were maintened in Nunc/Corning 80 cm^2 plastic bottles and grown in media for cell culture (DMEM containing 5 g/l of glucose, 2 mM of glutamin, 100 U/ml of penicilin, 100 μg/ml of streptomycin, 10% of fetal bovine serum and sodium hydrogencarbonate). Cell suspensions were diluted according to cell types and according to expected final cell density (10^4 of cells per well according to characteristics of cell growth), pippeted 80 μl of cell suspension on 96-well microtiter plates. Innoculates were stabilized by 24 hrs preincubation at 37° C. in CO2. Particular concentrations of tested compounds were added in time zero as 20 μl aliquotto wells of microtiter plates. Usually, the compounds were diluted into six concentrations in four-fold dilution series. In routine testing, the highest well concentration was 166.7 μM, of change dependent on the substance. All drug concentrations were examined in duplicates. The incubation of cells with tested derivatives lasted 72 hrs at 37° C., 100% humidity and in the atmosphere of CO2. At the end of the incubation period, the cells were tested and analysed according to the addition of Calcein AM (Molecular probes) solution and the incubation lasted for next 1 hour. Fluorescence (FD) was measured using Labsystem FIA reader Fluorskan Ascent (Microsystems). The survival of tumor cells (The tumor cell survival-TCS) was counted according to equation: […](FDwell with derivative/FDcontrol well)×100%. The value of GI50, that is equal to the concentration of compound at which 50% of tumour cells are terminated. To evaluate the antitumor activity was tested toxicity of new derivatives on panel of cell lines of different histogenetic and species origin (Tab. 6, G150 concentration given in μM). […] Effective derivatives killed tumor cells in concentrations close to 0.1 to 50. None of the newly prepared compounds only reached the value.

[1] = system: BJ human fibroblast cells; experiment: Calcein AM cytotoxicity assay; details: 72 hrs
Excerpt: as §1

MCF-7 = experiment: Calcein AM cytotoxicity assay; details: Homo sapiens, MCF7, 72 hrs
Excerpt: as §1

K562 = experiment: Calcein AM cytotoxicity assay; details: Homo sapiens, 72 hrs
Excerpt: as §1

[2] = system: Normal human dermal fibroblasts (NHDF); experiment: In vitro phototoxicity test (neutral red) on NHDF
Procedure: Phototoxic potential of test compound was determined by modified in vitro test validated phototoxicity evaluation (Spielmann H, Balls M, Dupuis J, Pape W J, Pechovitch G, de Silva O, Holzhiitter H G, Clothier R, Desolle P, Gerberick F, Liebsch M, Lovell W W, Maurer T, Pfannenbecker U, Potthast J M, Csato M, Sladowski D, Steiling W, Brantom P. The International EU/COLIPA In Vitro Phototoxicity Validation Study: Results of Phase II (Blind Trial). Part 1: The 3T3 NRU Phototoxicity Test. Toxicol In Vitro. 1998; 12:305-27). Normal human dermal fibroblasts (NHDF) were used as an in vitro model. Cells were isolated from tissue specimens obtained from healthy patients undergoing plastic surgery at the Department of Plastic and Aesthetic Surgery (University Hospital Olomouc). The use of skin tissue was in accordance with the Ethics Committee of the University Hospital and Faculty of Medicine and Dentistry, Palacky University, Olomouc and all patients signed written informed consent. Fibroblasts were used between the 2nd and 4th passage. For all experiments the fibroblasts were seeded onto 96-well plates at a density of 0.8×10^5 cells/ml (0.2 ml per well) of cultivation medium (DMEM supplemented with fetal calf serum (10%, v/v), penicillin ([…]) and streptomycin (100 U/ml)). Test substances included compounds number 1, 3, 9, 15 and 20. Compounds were dissolved in DMSO and then diluted in serum free medium (DMEM supplemented with penicillin ([…]) and streptomycin (100 U/ml)). After 24 h incubation was cultivation medium changed to serum free medium containing test compound or DMSO (negative control). The final applied concentrations range 3.9-125 μmol/l. As a control, serum free medium supplemented with appropriate concentration of DMSO (0.5%, v/v) was used. In parallel with test compound, chlorpromazine (CPZ; 0.8-50 μmol/l) was used as a known phototoxic compound. The test compound was in parallel applied on two 96-well plates with NHDF. After 60 minutes incubation with test compound medium was discarded, cells were washed two-times with PBS and PBS supplemented with glucose (1 mg/ml) was applied. A plate was then exposed to a non-cytotoxic dose of UVA radiation (5.0 J/cm^2) using a solar simulator SOL 500 (Dr. Hoenle Technology, Germany) equipped with a H1 filter transmitting wavelengths of 320-400 nm. Intensity of UVA radiation was evaluated before each irradiation by UVA-meter. A control (non-irradiated) plate was for the period of irradiation incubated in dark. After UVA exposure PBS with glucose was discarded and serum free medium was applied. After 24 hours (37° C., 5% CO2) cell damage was evaluated by neutral red (NR) incorporation into viable cells. Medium was discarded and NR solution (0.03% w/v, PBS) was applied. After 60 minutes NR solution was discarded, cells were fixed with a mixture of formaldehyde (0.5%, v/v) and CaCl2 (1%, m/v) in ratio 1:1 and then NR was dissolved in methanol (50%, v/v) with acetic acid (1%, v/v). After 5 minutes of intensive shaking absorbance was measured at 540 nm. Experiments were performed in four independent repetitions with use of cells from four donors to minimize individual sensitivity of donor cells. Phototoxic effect was evaluated as % of viability of control cells that was calculated from experimental data (absorbance) according to the following equation:
[formula] • AS . . . absorbance of sample (cells pre-incubated with test compound in serum free medium and irradiated) • AC . . . absorbance of control (cells pre-incubated with DMSO in serum free medium and irradiated) • AB . . . absorbance of background (extraction solution)

## c1nc(NCC2CCCO2)c2ncn(C3CCCO3)c2n1 (centres unmarked) [Compound 1, 6-(tetrahydrofuran-2-ylmethylamino)-9-(tetrahydrofuran-2-yl)purine]
HaCaT
  GI50: > 100 µM
[1]
  GI50: > 100 µM
MCF-7
  GI50: > 100 µM
K562
  GI50: > 100 µM
[2]; +UVA 5.0 J/cm^2, 3.9 μmol/l
  NHDF viability: 105.1 % control
[2]; +UVA 5.0 J/cm^2, 7.8 μmol/l
  NHDF viability: 110.6 % control
[2]; +UVA 5.0 J/cm^2, 15.6 μmol/l
  NHDF viability: 106.8 % control
[2]; +UVA 5.0 J/cm^2, 31.3 μmol/l
  NHDF viability: 109.5 % control
[2]; +UVA 5.0 J/cm^2, 62.5 μmol/l
  NHDF viability: 103.3 % control
[2]; +UVA 5.0 J/cm^2, 125 μmol/l
  NHDF viability: 107.5 % control
[2]; −UVA, 3.9 μmol/l
  NHDF viability: 96.6 % control
[2]; −UVA, 7.8 μmol/l
  NHDF viability: 106.5 % control
[2]; −UVA, 15.6 μmol/l
  NHDF viability: 99.6 % control
[2]; −UVA, 31.3 μmol/l
  NHDF viability: 102.4 % control
[2]; −UVA, 62.5 μmol/l
  NHDF viability: 102.3 % control
[2]; −UVA, 125 μmol/l
  NHDF viability: 109.7 % control

## OCc1ccc(CNc2ncnc3c2ncn3C2CCCO2)o1 (centres unmarked) [Compound 3, 6-(5-hydroxymethylfuran-2-ylmethylamino)-9-(tetrahydrofuran-2-yl)purine]
[2]; +UVA 5.0 J/cm^2, 3.9 μmol/l
  NHDF viability: 101.04 % control
[2]; +UVA 5.0 J/cm^2, 7.8 μmol/l
  NHDF viability: 106.46 % control
[2]; +UVA 5.0 J/cm^2, 15.6 μmol/l
  NHDF viability: 102.28 % control
[2]; +UVA 5.0 J/cm^2, 31.3 μmol/l
  NHDF viability: 107.4 % control
[2]; +UVA 5.0 J/cm^2, 62.5 μmol/l
  NHDF viability: 110.49 % control
[2]; +UVA 5.0 J/cm^2, 125 μmol/l
  NHDF viability: 111.8 % control
[2]; −UVA, 3.9 μmol/l
  NHDF viability: 103 % control
[2]; −UVA, 7.8 μmol/l
  NHDF viability: 104.9 % control
[2]; −UVA, 15.6 μmol/l
  NHDF viability: 104.2 % control
[2]; −UVA, 31.3 μmol/l
  NHDF viability: 107.7 % control
[2]; −UVA, 62.5 μmol/l
  NHDF viability: 106.6 % control
[2]; −UVA, 125 μmol/l
  NHDF viability: 110.4 % control

## c1csc(CNc2ncnc3c2ncn3C2CCCO2)c1 (centres unmarked) [Compound 9, 6-(thiophen-2-ylmethylamino)-9-(tetrahydrofuran-2-yl)purine]
HaCaT
  GI50: > 100 µM
[1]
  GI50: > 100 µM
MCF-7
  GI50: > 100 µM
K562
  GI50: > 100 µM
[2]; +UVA 5.0 J/cm^2, 3.9 μmol/l
  NHDF viability: 97.8 % control
[2]; +UVA 5.0 J/cm^2, 7.8 μmol/l
  NHDF viability: 102.3 % control
[2]; +UVA 5.0 J/cm^2, 15.6 μmol/l
  NHDF viability: 100.8 % control
[2]; +UVA 5.0 J/cm^2, 31.3 μmol/l
  NHDF viability: 105.9 % control
[2]; +UVA 5.0 J/cm^2, 62.5 μmol/l
  NHDF viability: 102.8 % control
[2]; +UVA 5.0 J/cm^2, 125 μmol/l
  NHDF viability: 106.3 % control
[2]; −UVA, 3.9 μmol/l
  NHDF viability: 100 % control
[2]; −UVA, 7.8 μmol/l
  NHDF viability: 103 % control
[2]; −UVA, 15.6 μmol/l
  NHDF viability: 100.5 % control
[2]; −UVA, 31.3 μmol/l
  NHDF viability: 106.7 % control
[2]; −UVA, 62.5 μmol/l
  NHDF viability: 107.9 % control
[2]; −UVA, 125 μmol/l
  NHDF viability: 108.4 % control

## Clc1nc(NCc2ccco2)c2ncn(C3CCCO3)c2n1 (centres unmarked) [Compound 15, 2-chloro-6-furfurylamino-9-(tetrahydrofuran-2-yl)purine]
[2]; +UVA 5.0 J/cm^2, 3.9 μmol/l
  NHDF viability: 100.1 % control
[2]; +UVA 5.0 J/cm^2, 7.8 μmol/l
  NHDF viability: 101.5 % control
[2]; +UVA 5.0 J/cm^2, 15.6 μmol/l
  NHDF viability: 102.6 % control
[2]; +UVA 5.0 J/cm^2, 31.3 μmol/l
  NHDF viability: 102.9 % control
[2]; +UVA 5.0 J/cm^2, 62.5 μmol/l
  NHDF viability: 103.3 % control
[2]; +UVA 5.0 J/cm^2, 125 μmol/l
  NHDF viability: 97.3 % control
[2]; −UVA, 3.9 μmol/l
  NHDF viability: 100.3 % control
[2]; −UVA, 7.8 μmol/l
  NHDF viability: 103.5 % control
[2]; −UVA, 15.6 μmol/l
  NHDF viability: 104.3 % control
[2]; −UVA, 31.3 μmol/l
  NHDF viability: 105.4 % control
[2]; −UVA, 62.5 μmol/l
  NHDF viability: 106.3 % control
[2]; −UVA, 125 μmol/l
  NHDF viability: 101.2 % control

## Clc1nc(NCC2CCCO2)c2ncn(C3CCCO3)c2n1 (centres unmarked) [Compound 20, 2-chloro-6-(tetrahydrofuran-2-ylmethylamino)-9-(tetrahydrofuran-2-yl)purine]
HaCaT
  GI50: > 100 µM
[1]
  GI50: > 100 µM
MCF-7
  GI50: > 100 µM
K562
  GI50: > 100 µM
[2]; +UVA 5.0 J/cm^2, 3.9 μmol/l
  NHDF viability: 100.1 % control
[2]; +UVA 5.0 J/cm^2, 7.8 μmol/l
  NHDF viability: 102.9 % control
[2]; +UVA 5.0 J/cm^2, 15.6 μmol/l
  NHDF viability: 100.4 % control
[2]; +UVA 5.0 J/cm^2, 31.3 μmol/l
  NHDF viability: 102.7 % control
[2]; +UVA 5.0 J/cm^2, 62.5 μmol/l
  NHDF viability: 105.1 % control
[2]; +UVA 5.0 J/cm^2, 125 μmol/l
  NHDF viability: 104.8 % control
[2]; −UVA, 3.9 μmol/l
  NHDF viability: 103.1 % control
[2]; −UVA, 7.8 μmol/l
  NHDF viability: 102.9 % control
[2]; −UVA, 15.6 μmol/l
  NHDF viability: 100.6 % control
[2]; −UVA, 31.3 μmol/l
  NHDF viability: 105.6 % control
[2]; −UVA, 62.5 μmol/l
  NHDF viability: 102 % control
[2]; −UVA, 125 μmol/l
  NHDF viability: 104 % control

## CN(C)CCCN1c2ccccc2Sc2ccc(Cl)cc21 [chlorpromazine, reference compound]
[2]; UVA+, 6.3 μmol/l
  viability of NHDF cells: below 80 % of control
[2]; UVA−, 25 μmol/l
  viability of NHDF cells: below 80%
